Data from patent US4459227A, “Para-hydroxyphenylhydrazines as in situ precursors of iminoquinones and quinones” (Duke University, priority 1981, dated 1984).
Entries after “also recorded” stand apart in the source; their conditions may differ. Like-named read-outs stand apart in the source and are kept apart here.

Legend:
liver = settings: cited from earlier work
[1] = target: T1, Leucine Aminopeptidase (LAP), type III-CP (Sus scrofa, UniProt P28839); experiment: Leucine aminopeptidase in vitro hydrolysis (TLC); type: biochemical; settings: 1 mg/ml AA-CHP, pH 9.0, up to 12 hours
T1 sequence (P28839 33-519): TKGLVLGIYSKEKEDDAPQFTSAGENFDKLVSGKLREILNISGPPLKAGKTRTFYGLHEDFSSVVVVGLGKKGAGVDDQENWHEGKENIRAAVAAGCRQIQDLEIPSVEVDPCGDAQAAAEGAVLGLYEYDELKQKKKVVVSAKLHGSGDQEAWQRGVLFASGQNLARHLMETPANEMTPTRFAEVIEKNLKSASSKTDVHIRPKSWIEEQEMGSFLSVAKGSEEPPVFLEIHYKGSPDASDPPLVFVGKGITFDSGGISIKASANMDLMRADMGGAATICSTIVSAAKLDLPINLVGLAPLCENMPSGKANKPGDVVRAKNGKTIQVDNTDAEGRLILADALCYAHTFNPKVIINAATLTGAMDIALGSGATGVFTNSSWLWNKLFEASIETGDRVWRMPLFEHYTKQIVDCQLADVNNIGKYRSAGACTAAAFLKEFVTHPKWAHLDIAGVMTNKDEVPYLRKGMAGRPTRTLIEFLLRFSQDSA
Procedure: Leucine Aminopeptidase (LAP), type III-CP (Sigma) was stored at 0°-4° C. in 0.75M saturated […], 0.1M Tris and 0.005M MgCl2 (pH 8) and contained 210 U/ml. Prior to the hydrolysis experiment, LAP (50λ) was activated by incubating it in 0.025M MnCl2 (0.2 ml), 0.5M Tris.HCl buffer (pH 9.0, 0.2 ml) and demineralized and ultra-filtered H2 O (0.6 ml) for at least 2 hours at 37° C. To each sample test tube was added AA-CHP (1.5 mg) in 0.02M Tris HCl buffer (pH 9.0, 0.5 ml) so that the final concentration was 1 mg/ml AA-CHP. […] They were dried and sprayed with 0.2% Ninhydrin in EtOH and the color was developed at 85° C. for 5 minutes. The in vitro hydrolysis of Leu-CHP by LAP was also concomitantly studied by scanning spectrophotometry at different times after the start of incubation with the enzyme. A blank reference cell containing only enzyme and buffer was used.

[2] = test system: Leucine Aminopeptidase (LAP); experiment: Hydrolysis of Leu-CHP by LAP studied by absorption spectrophotometry; type: biochemical; settings: pH 8.5, FIG. 7
Procedure: Leucine Aminopeptidase (LAP), type III-CP (Sigma) was stored at 0°-4° C. in 0.75M saturated […], 0.1M Tris and 0.005M MgCl2 (pH 8) and contained 210 U/ml. Prior to the hydrolysis experiment, LAP (50λ) was activated by incubating it in 0.025M MnCl2 (0.2 ml), 0.5M Tris.HCl buffer (pH 9.0, 0.2 ml) and demineralized and ultra-filtered H2 O (0.6 ml) for at least 2 hours at 37° C. To each sample test tube was added AA-CHP (1.5 mg) in 0.02M Tris HCl buffer (pH 9.0, 0.5 ml) so that the final concentration was 1 mg/ml AA-CHP. The hydrolysis reaction was allowed to proceed for up to 12 hours and then TLC's were performed by spotting the reaction solution (2-3 μl) on cellulose plates and developing them in Butanol (20 ml)/HAc(4ml)/Pyridine(13.3 ml)/H2 O (16 ml) solvent system. […]
In order to characterize the products of hydrolysis of AA-CHP's, the hydrolysis of Leu-CHP by LAP was studied by absorption spectrophotometry. […] However, by 22 minutes (not shown) the absorbance at 300 and 400 nm had diminished in intensity while the 350 maximum continued to increase, albeit at a slower rate. At pH 7.0 (FIG. 8B), the absorbance at 300 nm continued to slowly increase in intensity even up to 90 minutes after dissolving CHP-OEt (0.2 mg) in DMSO (0.02 ml) into 0.05M Phosphate buffer (3 ml). […]

[3] = test system: L1210 murine leukemia cells; experiment: Inhibition of 3H-thymidine incorporation into DNA; type: cell-based
Excerpt: An L1210 murine leukemia cell line was maintained in mice (female DBA/2J strain from the Jackson Laboratory, Bar Harbor, Maine) by transferring every seven days via intraperitoneal (i.p.) injection of 10^5 cells. […] The frozen cells maintained their viability for over two years. For all in vitro and in vivo experiments only freshly harvested intraperitoneally grown L1210 cells were used.
A DBA/2J mouse bearing L1210 cells for 6 days after i.p. inoculation of 1×10^5 cells was sacrificed by cervical dislocation and, using sterile technique, the abdominal skin was incised and pinned back. Using two 10 ml syringes with 21 gauge needles, one being filled with cold phosphate buffer saline (PBS) (9 ml, pH 7.4) and in 3 ml increments, the solution was injected into the peritoneal cavity through one side and withdrawn with the other syringe through the other side. The light pink cell suspension was then centrifuged at 2000 rpm for 5 minutes and the supernatant was decanted. […] After 0, 2, 4, 5 or 6 hours preincubation, 3H-Thymidine (1 μl; 1 μC) was added and then the incubation was continued for another 1/2 hour. The cells were then killed and their proteins precipitated with 5% TCA. […] To each vial was then added more PPO/POPOP/Toluene cocktail (1.5 ml) and the samples were counted. […]

[4] = In vivo toxicity (LD50, survival, histology); set-up: species or system mice; settings: mouse, in vivo, ip, mice
Procedure: (§1) Female DBA/2J mice, 8 weeks old, were injected intraperitoneally with test compound solutions (X, XI, XII, XIII, […]) to give a final concentration of 30 mg/ml.
(§2) In those groups receiving both test compound and cysteine, cysteine (1000 mg/kg) was given i.p. both 1 hour prior to and 2 or 3 hours after i.p. injection of the test compound. In Table 3 are the results of these experiments.

Female DBA/2J mice = experiment: In vivo toxicity (LD50, survival, histology)
Procedure: as §1, §2

mice = test system: mice
Procedure: Cysteine hydrochloride was neutralized with 1N NaOH and diluted with PBS so that the final concentration was 30 mg/ml. In those groups that received only the test compounds, a single dose (up to 1000 mg/kg) was given i.p. and any toxic deaths were autopsied and hematoxylin and eosin sections obtained.

phage (viral) infections = settings: tissue cultures, p-benzoquinone generated in situ; cited from earlier work
fungi = settings: cited from earlier work
[5] = Spectral study of rearrangement/reactions with nucleophiles, reducing and oxidizing agents; type: physicochemical; settings: for Final Maximum (nm): pH 8-9, ten-fold excess
Procedure: In order to characterize the products of hydrolysis of AA-CHP's, the hydrolysis of Leu-CHP by LAP was studied by absorption spectrophotometry. […] This was also true for the new maximum at 350 nm and for a second new "maximum" which appeared as a low, broad "peak" merging with 350 peak and centered at about 400 nm. However, by 22 minutes (not shown) the absorbance at 300 and 400 nm had diminished in intensity while the 350 maximum continued to increase, albeit at a slower rate. At pH 7.0 (FIG. 8B), the absorbance at 300 nm continued to slowly increase in intensity even up to 90 minutes after dissolving CHP-OEt (0.2 mg) in DMSO (0.02 ml) into 0.05M Phosphate buffer (3 ml). Furthermore, a second maximum at 350 nm developed but it remaind smaller in intensity than the 300 nm peak.
Table 2 summarizes the results of several separate experiments involving the reactions of CHP-OEt, CHA-OEt, pIQ-OEt and pBQ (0.5-1.0 mM) with various nucleophiles (lysine, 3-MPA) reducing agents (NaBH4, 3-MPA) and oxidizing agents (NaIO4, O2) in ten-fold molar excess in Tris-HCl buffer (0.05M, pH 9.0).
In these studies, CHP-OEt, CHA-OEt and pBQ* were all pure compounds, thus, their absorption could be unequivocably assigned, pIQ-OEt was generated by the autoxidation of CHA-OEt in solution and its presence was noted by the appearance of one absorbance maximum at 400 nm and the development of a distinct yellow color to a previously clear solution of CHA-OEt. […] On the other hand, there was a dissimilarity between the spectra of CHP-OEt and CHA-OEt. CHA-OEt was oxidized by O2 or NaIO4 to the pIQ-OEt with a λmax =400 nm whereas NaIO4 had no effect on the rate or nature of spectral change that occurred when . . .

Salmonella typhosa = settings: 1911; cited from earlier work
blue-green algae = settings: cited from earlier work
[6] = Leu-CHP 1000 mg/kg i.p. with cysteine

CC(=O)N=C1C=CC(=O)C=C1 [N-acetyl-p-iminobenzoquinone]
toxic effects in the liver (liver): responsible for the toxic effects in the liver

CC(C)C[C@H](N)C(=O)NN(CC(=O)O)c1ccc(O)cc1 [Leu-CHP, βN-(L-leucyl)-αN-(carboxymethyl)-p-hydroxy-phenylhydrazine]
cleavage/hydrolysis by LAP [1]: able to cleave; also recorded: demonstrated
new, more intense absorption maximum appearing during hydrolysis [2]: 350 nm
original absorption maximum (disappeared during hydrolysis) [2]: 300 nm
inhibition of 3H-thymidine incorporation into DNA ([3]; no pre-incubation (simultaneous exposure), FIG. 12): no inhibition
inhibition of 3H-thymidine incorporation / DNA synthesis (in words) ([3]; with pre-incubation): degree of inhibition of ^3 H-thymidine incorporation also increased
LD50 [4]: 750 to 1000 mg/kg
survivors/total (Female DBA/2J mice; 600 mg/kg i.p.): 5/5
survivors/total (Female DBA/2J mice; 750 mg/kg i.p.): 3/3
survivors/total (Female DBA/2J mice; 1000 mg/kg i.p.): 0/9
acute renal tubular necrosis (in words) (Female DBA/2J mice; i.p., mice): early signs of ATN
microscopic examination of the heart (Female DBA/2J mice; i.p., mice): no evidence of a toxic insult
pulmonary congestion and edema (in words) (Female DBA/2J mice; i.p., Phe-CHP 600, Leu-CHP 1000, CHP-OEt 550 mg/kg): moderate to severe
deaths/total (mice; 1000 mg/kg i.p., no cysteine): Nine of nine
deaths/total (mice; 1000 mg/kg i.p., no cysteine, listed as Leu--CHP): 9/9
Time of Death (mice; [6]): 72 h
pulmonary congestion or edema, histology of mouse that died on Day 3 (mice; [6]): no evidence of pulmonary congestion or edema
deaths/total (mice; Leu-CHP 1000 mg/kg i.p. with cysteine 1000 mg/kg before and after): one of three
deaths/total (mice; Leu-CHP 1000 mg/kg i.p. with cysteine 1000 mg/kg before and after, listed as Leu--CHP): 1/3
LD100 (mice; i.p., mice): 1000 mg/kg
Time of Death (mice; no cysteine, Leu-CHP 1000 mg/kg, Phe-CHP 600 mg/kg i.p.): ≤ 8 h
Time of Death (mice; no cysteine, Leu-CHP 1000 mg/kg, Phe-CHP 600 mg/kg i.p., listed as Leu--CHP): < 8 h

Oc1ccc(O)cc1 [p-benzohydroquinone]
prevention of phage (viral) infections (phage (viral) infections): prevent phage (viral) infections from proliferating

O=C1C(Cl)=C(Cl)C(=O)C(Cl)=C1Cl [chloranil, 2,3,5,6-tetrachloro-1,4-benzoquinone]
antifungal properties (fungi): marked antifungal properties

O=C1C=CC(=O)C=C1 [pBQ, p-Benzoquinone, reference compound]
Final Maximum (nm) ([5]; compound added: 3-MPA): 300 nm
Final Maximum (nm) ([5]; compound added: Lysine): 350 nm
Initial Maximum (nm) ([5]; pH 8-9): 240 nm
peak appearing only after several hours with 3-MPA ([5]; ten-fold excess 3-MPA, pH 9.0): 350 nm
initial peak with lysine (rapidly diminished) ([5]; ten-fold excess lysine, pH 9.0): 300 nm
bactericidal activity (Salmonella typhosa): potent bactericidal substance

O=C1C(Cl)=C(Cl)C(=O)c2ccccc21 [2,3-dichloro-1,4-naphthoquinone]
inhibition of blue-green algae (blue-green algae): inhibited
